Experimental data published in patent US20260364184A1, “COMPOUND BASED ON OXOISOINDOLINYL-SUBSTITUTED TETRAHYDROPYRIMIDINE-DIONE AND USE THEREOF” (GLUETACS THERAPEUTICS (SHANGHAI) CO., LTD., priority 2023, published 2026).

Assays:
ALK = biological target: T1, ALK (Homo sapiens, UniProt Q9UM73); assay: Western blot degradation of ALK; type: cell-based; details: H2228 Cell; 24 hours
T1 construct: known EML4-ALK variant 3 fusion, ALK kinase part unmutated), Western blot
Experimental: (§1) Conventional Western blot assay was performed to evaluate the effects of the compounds of the present disclosure on the expression of target proteins in cells.
(§2) (1) Cell Seeding and Protein Harvesting: The selected cells were processed according to the cell seeding procedure and protein harvesting procedure in Table II-2.
(§3) (2) To the collected supernatant, 5×SDS sample loading buffer was added, followed by denaturation at 95 °C for 5 minutes. The denatured samples were then separated by SDS-PAGE electrophoresis on a polyacrylamide gel. Proteins were transferred to a nitrocellulose membrane (0.45 μm NC membrane), blocked with blocking buffer at room temperature for 1 hour, and subjected to antibody incubation and development procedures according to the antibody manufacturer's instructions (Cell Signaling Technology).
(§4) Half-Maximal Degradation Concentration value (the drug concentration required for degrading proteins by 50%, abbreviated as DC50) reads method: comparing the grayscale values of Western blot bands from drug-treated samples with those from blank DMSO-treated controls, and identifying the drug concentration range at which the grayscale value is half that of the DMSO-treated control bands.
(§5) DC50 values can be calculated using ImageJ software to measure grayscale values of Western blot bands from drug-treated samples. The concentration-response curve is fitted to estimate the drug concentration corresponding to half the grayscale value.
(§6) Target protein remaining (%) refers to the percentage of target protein remaining in cells after treatment with protein degrader compounds.
(§7) Calculation method for target protein remaining (%): Use ImageJ software to measure grayscale values of Western blot bands from drug (protein degrader)-treated samples. The grayscale value of drug-treated bands is divided by that of internal control protein bands, and the resulting quotient is normalized to obtain the relative percentage of remaining target protein after protein degrader treatment.
(§8) Target protein degradation rate (%)=1−target protein remaining (%).

[1] = test system: Human large cell immunoblastic lymphoma cell line SR; assay: Inhibition of SR cell proliferation (CellTiter luminescent viability); type: cell-based; details: Table IB1, ALK inhibitor-based, 96 hours, read-out: Inhibitory activity (IC50, nM) on tumor cell proliferation, SR
Procedure, shortened: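 Cells are seeded in 96-well plates, cultured at 37 °C, 5% CO2, and treated next day with 5-fold serial compound dilutions (stock series from 2000 μM; 0.5 μL into 100 μL medium). Viability is read by CellTiter-Meiluncell luminescence after the set exposure, and IC50 is taken from growth-inhibition curves.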

[2] = test system: Human malignant melanoma cell line (A375); assay: Inhibition of A375 cell proliferation (CellTiter luminescent viability); details: A-375, Table III (II1), EZH2 inhibitor-based, 96 hours; for inhibition at 0.01 µM: A375, 10 nM, read-out: Inhibition Rate at 10 nM (%); for inhibition at 0.5 µM: A375, 500 nM, read-out: Inhibition Rate at 500 nM (%)
Experimental: (§9) The tumor cells used herein were cultured in a cell culture medium listed in table 3 at 37 °C in an incubator with 5% CO2. Prior to experimentation, all cell lines used were correctly identified by STR profiling, and tested negative for mycoplasma contamination using a mycoplasma detection kit through routine screenings.
(§10) The IC50 values of the compounds of the present disclosure (including the compounds in Table 1, Table 2, and Examples 1-468) were determined using the CellTiter-Meiluncell Luminescent Cell Viability Assay Kit from Dalian Meilun Biotech Co., Ltd. The detailed procedure is as follows: Tumor cells were seeded in 96-well cell culture plates at the densities specified in Table 4. On the following day, the test compounds of the present disclosure were subjected to serial dilution. The dilution can be performed according to one of the following two methods: • (1) The first dilution method: The test compounds of the present disclosure (including the compounds in Table 1, Table 2, and Examples 1-468) were subjected to 5-fold serial dilutions starting from a highest concentration of 2000 μM, resulting in a total of 9 concentrations from high to low (2000, 400, 80, 16, 3.2, 0.64, 0.128, 0.0256, 0.00512 μM). Subsequently, 0.5 μL of the test compound dilution was transferred into the 96-well plate containing the cells, with each well containing 100 μL of cell culture medium. […] Into the 96-well plate, the diluted test compounds and corresponding detection reagents were added, resulting in final test compound concentrations of 500 nM and 10 nM, respectively. The experimental procedure is described below using the diluted 2 μM test compound as an example.
(§11) 0.5 μL of the aforementioned diluted compound of the present disclosure (including the compounds in Table 1, Table 2, and Examples 1-468) was added to the seeded cells in 100 μL of medium, yielding a final test compound concentration of 10 nM. After the cells were treated with the compounds of the present disclosure for a specified period, the cell viability assay reagent was added to the culture medium according to the kit's instructions to determine cell viability. […] All controls were treated using the same procedure as the compounds of the present disclosure. The growth inhibition curves for the compounds of the present disclosure were plotted using Prism GraphPad software, and the IC50 values were calculated therefrom.

[3] = test system: Human neuroblastoma cell line (SK-N-AS); assay: Inhibition of SK-N-AS cell proliferation (CellTiter luminescent viability); type: cell-based; details: Table II2, EZH2 inhibitor-based, 96 hours
Experimental: as §9, §10, §11

AKT = assay: Western blot degradation of AKT; type: cell-based; details: hPBMC Cell; 24 hours
Experimental: as §1, §2, §3, §4, §5, §6, §7, §8

T1 sequence (Q9UM73 19-1620): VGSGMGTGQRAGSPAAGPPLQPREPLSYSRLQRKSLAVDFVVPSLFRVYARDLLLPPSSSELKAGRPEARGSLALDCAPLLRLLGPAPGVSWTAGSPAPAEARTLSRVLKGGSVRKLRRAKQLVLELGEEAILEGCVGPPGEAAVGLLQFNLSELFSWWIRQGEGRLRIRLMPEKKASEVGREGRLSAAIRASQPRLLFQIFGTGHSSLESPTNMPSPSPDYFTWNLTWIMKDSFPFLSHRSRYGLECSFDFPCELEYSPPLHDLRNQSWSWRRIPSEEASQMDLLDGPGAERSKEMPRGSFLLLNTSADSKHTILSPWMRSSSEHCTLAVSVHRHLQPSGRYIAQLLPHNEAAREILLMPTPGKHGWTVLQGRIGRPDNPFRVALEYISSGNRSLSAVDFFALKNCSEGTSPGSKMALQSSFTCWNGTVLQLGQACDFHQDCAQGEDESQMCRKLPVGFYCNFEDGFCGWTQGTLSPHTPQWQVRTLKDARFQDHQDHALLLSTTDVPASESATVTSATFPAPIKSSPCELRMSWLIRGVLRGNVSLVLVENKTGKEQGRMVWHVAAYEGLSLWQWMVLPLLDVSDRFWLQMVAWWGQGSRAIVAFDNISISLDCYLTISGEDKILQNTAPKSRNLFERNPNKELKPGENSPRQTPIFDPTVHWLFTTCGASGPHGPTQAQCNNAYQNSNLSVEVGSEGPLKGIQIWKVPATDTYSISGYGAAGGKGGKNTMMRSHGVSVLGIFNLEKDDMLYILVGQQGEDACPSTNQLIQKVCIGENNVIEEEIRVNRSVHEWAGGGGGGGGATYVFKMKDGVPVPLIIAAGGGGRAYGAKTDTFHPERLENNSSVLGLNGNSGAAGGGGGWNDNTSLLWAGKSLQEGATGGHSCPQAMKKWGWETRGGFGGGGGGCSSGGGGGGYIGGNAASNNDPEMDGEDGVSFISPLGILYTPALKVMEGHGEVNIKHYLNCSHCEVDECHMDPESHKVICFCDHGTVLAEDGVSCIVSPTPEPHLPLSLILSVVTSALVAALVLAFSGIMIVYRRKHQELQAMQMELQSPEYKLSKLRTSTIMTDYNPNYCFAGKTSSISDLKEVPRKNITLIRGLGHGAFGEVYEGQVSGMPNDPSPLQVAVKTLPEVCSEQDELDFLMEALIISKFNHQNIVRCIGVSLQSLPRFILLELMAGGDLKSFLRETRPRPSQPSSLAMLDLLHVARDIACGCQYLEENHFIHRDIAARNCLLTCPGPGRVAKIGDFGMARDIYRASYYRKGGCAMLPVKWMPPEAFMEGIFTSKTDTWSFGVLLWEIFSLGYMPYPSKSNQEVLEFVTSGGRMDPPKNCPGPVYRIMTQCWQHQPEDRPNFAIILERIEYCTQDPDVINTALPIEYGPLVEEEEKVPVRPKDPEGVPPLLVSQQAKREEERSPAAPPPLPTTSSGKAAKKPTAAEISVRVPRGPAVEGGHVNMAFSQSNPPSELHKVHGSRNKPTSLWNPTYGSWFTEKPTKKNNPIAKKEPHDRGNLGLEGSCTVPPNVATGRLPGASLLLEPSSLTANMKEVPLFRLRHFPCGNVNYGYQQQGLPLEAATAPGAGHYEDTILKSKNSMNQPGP
T1 sequence (Q96SW2 whole entry partner, the tested form may be a part): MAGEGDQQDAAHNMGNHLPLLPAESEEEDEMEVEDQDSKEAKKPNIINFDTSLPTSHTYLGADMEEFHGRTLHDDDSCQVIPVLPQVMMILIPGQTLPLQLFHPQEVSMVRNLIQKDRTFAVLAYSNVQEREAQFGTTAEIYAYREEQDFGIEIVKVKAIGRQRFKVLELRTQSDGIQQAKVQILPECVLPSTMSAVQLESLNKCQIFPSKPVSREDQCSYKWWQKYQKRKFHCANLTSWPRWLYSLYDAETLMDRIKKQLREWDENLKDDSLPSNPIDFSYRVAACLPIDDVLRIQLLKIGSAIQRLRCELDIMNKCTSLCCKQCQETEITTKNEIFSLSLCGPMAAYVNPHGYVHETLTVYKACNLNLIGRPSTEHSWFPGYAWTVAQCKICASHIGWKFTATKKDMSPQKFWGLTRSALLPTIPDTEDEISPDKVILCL

SMILES: Cc1cc(Nc2ncc(Cl)c(Nc3ccccc3S(=O)(=O)C(C)C)n2)c(OC(C)C)cc1C1CCN(Cc2ccc3c(c2)C(=O)N(N2CCC(=O)NC2=O)C3=O)CC1 [GT-07363, 5-((4-(4-((5-chloro-4-((2-(isopropylsulfonyl)phenyl)amino)pyrimidin-2-yl)amino)-5-isopropoxy-2-methylphenyl)piperidin-1-yl)methyl)-2-(2,4-dioxotetrahydropyrimidin-1(2H)-yl)isoindoline-1,3-dione]
- Degradation of substrate protein ALK (substrate protein remaining %) (ALK): A (0%≤substrate protein remaining %≤80%)
- IC50 [1]: 100 to 300 nM

SMILES: CCN(c1cc(-c2ccc(CN3CCN(Cc4ccc5c(c4)CN(N4CCC(=O)NC4=O)C5=O)CC3)cc2)cc(C(=O)NCc2c(C)cc(C)[nH]c2=O)c1C)C1CCOCC1 [GT-08508, N-((4,6-dimethyl-2-oxo-1,2-dihydropyridin-3-yl)methyl)-4′-((4-((2-(2,4-dioxotetrahydropyrimidin-1(2H)-yl)-1-oxoisoindolin-5-yl)methyl)piperazin-1-yl)methyl)-5-(ethyl(tetrahydro-2H-pyran-4-yl)amino)-4-methyl-[1,1′-biphenyl]-3-carboxamide]
- inhibition at 0.01 µM [2]: 20 to 30%
- inhibition at 0.5 µM [2]: 20 to 30%

SMILES: CCN(c1cc(-c2ccc(N3CCN(C4CCN(Cc5ccc6c(c5)C(=O)N(N5CCC(=O)NC5=O)C6=O)CC4)CC3)cc2)cc(C(=O)NCc2c(C)cc(C)[nH]c2=O)c1C)C1CCOCC1 [GT-08515, N-((4,6-dimethyl-2-oxo-1,2-dihydropyridin-3-yl)methyl)-4′-(4-(1-((2-(2,4-dioxotetrahydropyrimidin-1(2H)-yl)-1,3-dioxoisoindolin-5-yl)methyl)piperidin-4-yl)piperazin-1-yl)-5-(ethyl(tetrahydro-2H-pyran-4-yl)amino)-4-methyl-[1,1′-biphenyl]-3-carboxamide]
- inhibition at 0.01 µM ([3]; 10 nM, read-out: Inhibition Rate at 10 nM (%)): 20 to 30%
- inhibition at 0.5 µM ([3]; 500 nM, read-out: Inhibition Rate at 500 nM (%)): 20 to 30%
- inhibition at 0.01 µM [2]: 20 to 30%
- inhibition at 0.5 µM [2]: 20 to 30%

SMILES: CCCc1cc(C)[nH]c(=O)c1CNC(=O)c1cc(-c2ccc(N3CCN(CC4CCN(c5ccc6c(c5)C(=O)N(N5CCC(=O)NC5=O)C6=O)CC4)CC3)nc2)cc2c1cnn2C(C)C [GT-08516, 6-(6-(4-((1-(2-(2,4-dioxotetrahydropyrimidin-1(2H)-yl)-1,3-dioxoisoindolin-5-yl)piperidin-4-yl)methyl)piperazin-1-yl)pyridin-3-yl)-1-isopropyl-N-((6-methyl-2-oxo-4-propyl-1,2-dihydropyridin-3-yl)methyl)-1H-indazole-4-carboxamide]
- inhibition at 0.01 µM [2]: 20 to 30%
- inhibition at 0.5 µM [2]: 20 to 30%

SMILES: CCN(c1cc(-c2ccc(CN3CCN(CC4CCN(c5ccc6c(c5)C(=O)N(N5CCC(=O)NC5=O)C6=O)CC4)CC3)cc2)cc(C(=O)NCc2c(C)cc(C)[nH]c2=O)c1C)C1CCOCC1 [GT-08518, N-((4,6-dimethyl-2-oxo-1,2-dihydropyridin-3-yl)methyl)-4′-((4-((1-(2-(2,4-dioxotetrahydropyrimidin-1(2H)-yl)-1,3-dioxoisoindolin-5-yl)piperidin-4-yl)methyl)piperazin-1-yl)methyl)-5-(ethyl(tetrahydro-2H-pyran-4-yl)amino)-4-methyl-[1,1′-biphenyl]-3-carboxamide]
- inhibition at 0.01 µM [2]: 20 to 30%
- inhibition at 0.5 µM [2]: 20 to 30%

SMILES: Cn1ncc(Cl)c1-c1cc(C(=O)N[C@H](CNCc2ccc3c(c2)CN(N2CCC(=O)NC2=O)C3=O)Cc2cccc(F)c2)sc1Cl [GT-08572, (S)-5-chloro-4-(4-chloro-1-methyl-1H-pyrazol-5-yl)-N-(1-(((2-(2,4-dioxotetrahydropyrimidin-1(2H)-yl)-1-oxoisoindolin-5-yl)methyl)amino)-3-(3-fluorophenyl)propan-2-yl)thiophene-2-carboxamide]
- Degradation of substrate protein AKT (substrate protein remaining %) (AKT): A (0%≤substrate protein remaining %≤80%)

SMILES: CCN(c1cc(-c2ccc(CN3CCOCC3)cc2)cc(C(=O)NCc2c(C)cc(C)[nH]c2=O)c1C)C1CCOCC1 [Tazemetostat, reference compound]
- inhibition at 0.01 µM [2]: 0 to 5%
- inhibition at 0.5 µM [2]: 0 to 5%
